Results as given in patent EP4635500A1, “THERAPEUTIC AGENT FOR BACTERIAL INFECTION” (Sumitomo Pharma Co., Ltd., priority 2022, dated 2024).
In brackets after ≈: the same amount, converted by molar mass. Like-named read-outs stand apart in the source and are kept apart here.

Legend:
Enterobacter hormaechei = experiment: MIC, broth microdilution, standard strains and Japanese clinical isolates (Example 5, Table 4); format: cell-based; details: ATCCBAA2082; KUB4001 Enterobacter hormaechei ATCC BAA-2082, KPC-2
Enterobacterales = experiment: MIC, broth microdilution, CDC/FDA Antibiotic Resistance Isolate Bank (Example 7, Tables 8, 11, 12); format: cell-based

CC(C)(O/N=C(\C(=O)N[C@@H]1C(=O)N2C(C(=O)[O-])=C(C[N+]3(CCNC(=O)c4ccc(O)c(O)c4Cl)CCCC3)CS[C@H]12)c1csc(N)n1)C(=O)O [Cefiderocol, cefiderocol]
MIC (Enterobacter hormaechei): 2 µg/mL (≈ 2.66 µM) | MIC50 (Enterobacterales; 154 strains of Enterobacterales, read-out: MIC50): 0.5 µg/mL (≈ 0.665 µM) | MIC80 (Enterobacterales; 154 strains of Enterobacterales, read-out: MIC80): 1 µg/mL (≈ 1.33 µM) | MIC90 (Enterobacterales; 154 strains of Enterobacterales, read-out: MIC90): 2 µg/mL (≈ 2.66 µM) | MIC (Enterobacterales; Citrobacter freundii, KUB No. 5654, AR Bank # 157, read-out: MIC): 1 µg/mL (≈ 1.33 µM) | MIC (Enterobacterales; Enterobacter cloacae, Enterobacter cloacae KUB No. 5792, AR Bank #448, read-out: MIC): 2 µg/mL (≈ 2.66 µM) | MIC (Enterobacterales; Enterobacter cloacae, Enterobacter cloacae KUB No. 5807, AR Bank #501, read-out: MIC): 1 µg/mL (≈ 1.33 µM) | MIC (Enterobacterales; Enterobacter cloacae, Enterobacter cloacae KUB No. 5808, AR Bank #502, read-out: MIC): 1 µg/mL (≈ 1.33 µM) | MIC (Enterobacterales; Enterobacter cloacae, Enterobacter cloacae complex, KUB No. 5661, AR Bank # 164, read-out: MIC): 0.5 µg/mL (≈ 0.665 µM) | MIC (Enterobacterales; Enterobacter cloacae, Enterobacter cloacae group, KUB No. 5629, AR Bank # 132, read-out: MIC): 0.5 µg/mL (≈ 0.665 µM) | MIC (Enterobacterales; Enterobacter cloacae, KUB No. 5535, AR Bank# 38, read-out: MIC): 0.5 µg/mL (≈ 0.665 µM) | MIC (Enterobacterales; Enterobacter cloacae, KUB No. 5547, AR Bank# 50, read-out: MIC): 2 µg/mL (≈ 2.66 µM) | MIC (Enterobacterales; Enterobacter cloacae, KUB No. 5550, AR Bank# 53, read-out: MIC): 0.12 µg/mL (≈ 0.16 µM) | MIC (Enterobacterales; Enterobacter cloacae, KUB No. 5557, AR Bank# 60, read-out: MIC): 4 µg/mL (≈ 5.32 µM) | MIC (Enterobacterales; Enterobacter cloacae, KUB No. 5562, AR Bank # 65, read-out: MIC): 0.25 µg/mL (≈ 0.332 µM) | MIC (Enterobacterales; Enterobacter cloacae, KUB No. 5569, AR Bank # 72, read-out: MIC): 0.25 µg/mL (≈ 0.332 µM) | MIC (Enterobacterales; Enterobacter cloacae, KUB No. 5570, AR Bank # 73, read-out: MIC): 0.25 µg/mL (≈ 0.332 µM) | MIC (Enterobacterales; Enterobacter cloacae, KUB No. 5590, AR Bank # 93, read-out: MIC): 0.25 µg/mL (≈ 0.332 µM) | MIC (Enterobacterales; Enterobacter cloacae, KUB No. 5660, AR Bank # 163, read-out: MIC): 0.25 µg/mL (≈ 0.332 µM) | MIC (Enterobacterales; Enterobacter cloacae, KUB No. 5761, AR Bank # 365, read-out: MIC): 0.25 µg/mL (≈ 0.332 µM) | MIC (Enterobacterales; Enterobacter cloacae, KUB No. 5762, AR Bank # 366, read-out: MIC): 0.25 µg/mL (≈ 0.332 µM) | MIC (Enterobacterales; Enterobacter cloacae, KUB No. 5763, AR Bank # 367, read-out: MIC): 1 µg/mL (≈ 1.33 µM) | MIC (Enterobacterales; Enterobacter cloacae, KUB No. 5778, AR Bank # 432, read-out: MIC): 4 µg/mL (≈ 5.32 µM) | MIC (Enterobacterales; Enterobacter cloaccae, KUB No. 5651, AR Bank # 154, read-out: MIC): 4 µg/mL (≈ 5.32 µM) | MIC (Enterobacterales; Enterobacter clooreae, KUB No. 5633, AR Bank # 136, read-out: MIC): 0.25 µg/mL (≈ 0.332 µM) | MIC (Enterobacterales; Escherichia coli, Escherichia coli KUB No. 5783, AR Bank #437, read-out: MIC): 0.25 µg/mL (≈ 0.332 µM) | MIC (Enterobacterales; Escherichia coli, Escherichia coli KUB No. 5794, AR Bank #450, read-out: MIC): 0.25 µg/mL (≈ 0.332 µM) | MIC (Enterobacterales; Escherichia coli, Escherichia coli KUB No. 5795, AR Bank #451, read-out: MIC): 0.5 µg/mL (≈ 0.665 µM) | MIC (Enterobacterales; Escherichia coli, Escherichia coli KUB No. 5796, AR Bank #452, read-out: MIC): 1 µg/mL (≈ 1.33 µM) | MIC (Enterobacterales; Escherichia coli, Escherichia coli KUB No. 5803, AR Bank #861, read-out: MIC): 2 µg/mL (≈ 2.66 µM) | MIC (Enterobacterales; Escherichia coli, KUB No. 5558, AR Bank # 61, read-out: MIC): ≤ 0.06 µg/mL | MIC (Enterobacterales; Escherichia coli, KUB No. 5564, AR Bank # 67, read-out: MIC): 0.12 µg/mL (≈ 0.16 µM) | MIC (Enterobacterales; Escherichia coli, KUB No. 5566, AR Bank # 69, read-out: MIC): 1 µg/mL (≈ 1.33 µM) | MIC (Enterobacterales; Escherichia coli, KUB No. 5574, AR Bank # 77, read-out: MIC): ≤ 0.06 µg/mL | MIC (Enterobacterales; Escherichia coli, KUB No. 5578, AR Bank # 81, read-out: MIC): 0.25 µg/mL (≈ 0.332 µM) | MIC (Enterobacterales; Escherichia coli, KUB No. 5581, AR Bank # 84, read-out: MIC): 0.5 µg/mL (≈ 0.665 µM) | MIC (Enterobacterales; Escherichia coli, KUB No. 5582, AR Bank # 85, read-out: MIC): 0.12 µg/mL (≈ 0.16 µM) | MIC (Enterobacterales; Escherichia coli, KUB No. 5583, AR Bank # 86, read-out: MIC): 0.12 µg/mL (≈ 0.16 µM) | MIC (Enterobacterales; Escherichia coli, KUB No. 5586, AR Bank # 89, read-out: MIC): ≤ 0.06 µg/mL | MIC (Enterobacterales; Escherichia coli, KUB No. 5601, AR Bank # 104, read-out: MIC): 1 µg/mL (≈ 1.33 µM) | MIC (Enterobacterales; Escherichia coli, KUB No. 5611, AR Bank # 114, read-out: MIC): 0.25 µg/mL (≈ 0.332 µM) | MIC (Enterobacterales; Escherichia coli, KUB No. 5615, AR Bank # 118, read-out: MIC): 2 µg/mL (≈ 2.66 µM) | MIC (Enterobacterales; Escherichia coli, KUB No. 5616, AR Bank # 119, read-out: MIC): 0.5 µg/mL (≈ 0.665 µM) | MIC (Enterobacterales; Escherichia coli, KUB No. 5625, AR Bank # 128, read-out: MIC): 2 µg/mL (≈ 2.66 µM) | MIC (Enterobacterales; Escherichia coli, KUB No. 5634, AR Bank # 137, read-out: MIC): 2 µg/mL (≈ 2.66 µM) | MIC (Enterobacterales; Escherichia coli, KUB No. 5646, AR Bank # 149, read-out: MIC): 16 µg/mL (≈ 21.3 µM) | MIC (Enterobacterales; Escherichia coli, KUB No. 5647, AR Bank # 150, read-out: MIC): 4 µg/mL (≈ 5.32 µM) | MIC (Enterobacterales; Escherichia coli, KUB No. 5648, AR Bank # 151, read-out: MIC): 4 µg/mL (≈ 5.32 µM) | MIC (Enterobacterales; Escherichia coli, KUB No. 5659, AR Bank # 162, read-out: MIC): 8 µg/mL (≈ 10.6 µM) | MIC (Enterobacterales; Escherichia coli, KUB No. 5764, AR Bank # 368, read-out: MIC): ≤ 0.06 µg/mL | MIC (Enterobacterales; Escherichia coli, KUB No. 5765, AR Bank # 369, read-out: MIC): 0.25 µg/mL (≈ 0.332 µM) | MIC (Enterobacterales; Escherichia coli, KUB No. 5766, AR Bank # 370, read-out: MIC): 0.5 µg/mL (≈ 0.665 µM) | MIC (Enterobacterales; Escherichia coli, KUB No. 5767, AR Bank # 371, read-out: MIC): 0.5 µg/mL (≈ 0.665 µM) | MIC (Enterobacterales; Escherichia coli, KUB No. 5768, AR Bank # 372, read-out: MIC): 1 µg/mL (≈ 1.33 µM) | MIC (Enterobacterales; Escherichia coli, KUB No. 5769, AR Bank # 373, read-out: MIC): ≤ 0.06 µg/mL | MIC (Enterobacterales; Escherichia coli, KUB No. 5770, AR Bank # 374, read-out: MIC): < 0.06 µg/mL | MIC (Enterobacterales; Escherichia coli, KUB No. 5774, AR Bank # 378, read-out: MIC): 0.12 µg/mL (≈ 0.16 µM) | MIC (Enterobacterales; Escherichia coli, KUB No. 5779, AR Bank # 433, read-out: MIC): 0.5 µg/mL (≈ 0.665 µM) | MIC (Enterobacterales; Escherichia coli, KUB No. 5780, AR Bank # 434, read-out: MIC): 0.5 µg/mL (≈ 0.665 µM) | MIC (Enterobacterales; Escherichia coli, KUB No. 5781, AR Bank # 435, read-out: MIC): 4 µg/mL (≈ 5.32 µM) | MIC (Enterobacterales; Escherichia, KUB No. 57, AR Bank # 436 (row cut off)): ≤0.0 µg/mL | MIC (Enterobacterales; Klebsiella aerogenes, Enterobacter aerogenes, KUB No. 5559, AR Bank # 62, read-out: MIC): ≤ 0.06 µg/mL | MIC (Enterobacterales; Klebsiella aerogenes, Enterobacter aerogenes, KUB No. 5571, AR Bank # 74, read-out: MIC): ≤ 0.06 µg/mL | MIC (Enterobacterales; Klebsiella aerogenes, Enterobacter aerogenes, KUB No. 5658, AR Bank # 161, read-out: MIC): 1 µg/mL (≈ 1.33 µM) | MIC (Enterobacterales; Klebsiella aerogenes, Enterobacter aerogenes, KUB No. 5777, AR Bank # 431, read-out: MIC): 1 µg/mL (≈ 1.33 µM) | MIC (Enterobacterales; Klebsiella oxytoca, KUB No. 5568, AR Bank # 71, read-out: MIC): ≤ 0.06 µg/mL | MIC (Enterobacterales; Klebsiella oxytoca, KUB No. 5644, AR Bank # 147, read-out: MIC): 0.12 µg/mL (≈ 0.16 µM) | MIC (Enterobacterales; Klebsiella oxytoca, KUB No. 5771, AR Bank # 375, read-out: MIC): 0.5 µg/mL (≈ 0.665 µM) | MIC (Enterobacterales; Klebsiella oxytoca, KUB No. 5776, AR Bank # 380, read-out: MIC): ≤ 0.06 µg/mL | MIC (Enterobacterales; Klebsiella ozaenae, KUB No. 5593, AR Bank # 96, read-out: MIC): ≤ 0.06 µg/mL | MIC (Enterobacterales; Klebsiella pnemnonine, KUB No. 5758, AR Bank # 362, read-out: MIC): 0.5 µg/mL (≈ 0.665 µM) | MIC (Enterobacterales; Klebsiella pneumoniae, KUB No. 5531, AR Bank# 34, read-out: MIC): 0.25 µg/mL (≈ 0.332 µM) | MIC (Enterobacterales; Klebsiella pneumoniae, KUB No. 5536, AR Bank# 39, read-out: MIC): 0.12 µg/mL (≈ 0.16 µM) | MIC (Enterobacterales; Klebsiella pneumoniae, KUB No. 5537, AR Bank# 40, read-out: MIC): 0.5 µg/mL (≈ 0.665 µM) | MIC (Enterobacterales; Klebsiella pneumoniae, KUB No. 5538, AR Bank# 41, read-out: MIC): 2 µg/mL (≈ 2.66 µM) | MIC (Enterobacterales; Klebsiella pneumoniae, KUB No. 5540, AR Bank# 43, read-out: MIC): 0.25 µg/mL (≈ 0.332 µM) | MIC (Enterobacterales; Klebsiella pneumoniae, KUB No. 5541, AR Bank# 44, read-out: MIC): 0.5 µg/mL (≈ 0.665 µM) | MIC (Enterobacterales; Klebsiella pneumoniae, KUB No. 5543, AR Bank# 46, read-out: MIC): 0.25 µg/mL (≈ 0.332 µM) | MIC (Enterobacterales; Klebsiella pneumoniae, KUB No. 5546, AR Bank# 49, read-out: MIC): 1 µg/mL (≈ 1.33 µM) | MIC (Enterobacterales; Klebsiella pneumoniae, KUB No. 5563, AR Bank # 66, read-out: MIC): 0.5 µg/mL (≈ 0.665 µM) | MIC (Enterobacterales; Klebsiella pneumoniae, KUB No. 5565, AR Bank # 68, read-out: MIC): 2 µg/mL (≈ 2.66 µM) | MIC (Enterobacterales; Klebsiella pneumoniae, KUB No. 5572, AR Bank # 75, read-out: MIC): 0.25 µg/mL (≈ 0.332 µM) | MIC (Enterobacterales; Klebsiella pneumoniae, KUB No. 5573, AR Bank # 76, read-out: MIC): ≤ 0.06 µg/mL | MIC (Enterobacterales; Klebsiella pneumoniae, KUB No. 5576, AR Bank # 79, read-out: MIC): 0.12 µg/mL (≈ 0.16 µM) | MIC (Enterobacterales; Klebsiella pneumoniae, KUB No. 5577, AR Bank # 80, read-out: MIC): 2 µg/mL (≈ 2.66 µM) | MIC (Enterobacterales; Klebsiella pneumoniae, KUB No. 5584, AR Bank # 87, read-out: MIC): 1 µg/mL (≈ 1.33 µM) | MIC (Enterobacterales; Klebsiella pneumoniae, KUB No. 5594, AR Bank # 97, read-out: MIC): 1 µg/mL (≈ 1.33 µM) | MIC (Enterobacterales; Klebsiella pneumoniae, KUB No. 5595, AR Bank # 98, read-out: MIC): 0.12 µg/mL (≈ 0.16 µM) | MIC (Enterobacterales; Klebsiella pneumoniae, KUB No. 5603, AR Bank # 106, read-out: MIC): 1 µg/mL (≈ 1.33 µM)
